Reference: patent US20210347823A1, “METHODS OF PHYSICOCHEMICAL-GUIDED PEPTIDE DESIGN AND NOVEL PEPTIDES DERIVED THEREFROM” (Massachusetts Institute of Technology, priority 2018, published 2021)

Legend:
[1] = tested on: HEK293 human embryonic kidney cells; test: Cytotoxicity assay (MTS); assay type: cell-based; details: for toxicity at 64 μmol L^−1: assay not stated; for Cytotoxicity: HEK293, 48 h, MTS, peptides 0-64 μmol L^−1
Experimental: FIGS. 7A-7B. Cytotoxicity of engineered peptides. FIG. 7A. Schematic of the experimental design for cytotoxicity assays of Pol-CP—NH2 and derivatives against HEK293 human embryonic kidney cells. Briefly, cells were cultured in DMEM medium supplemented with FBS and antibiotics at 37° C. and 5% CO2. FIG. 7B. Results obtained by seeding HEK293 50,000 cells and incubating with peptides' solution (0-64 μmol L^−1) at 37° C. for 48 h. Cell viability was measured by MTS assay. All experiments were performed in triplicate.
Cytotoxicity assays. Human embryonic kidney 293 (HEK 293) cells were cultured in Dulbecco's Modified Eagle Medium (DMEM) supplemented with 10% Fetal Bovine Serum (FBS) and 1% penicillin-streptomycin at 37° C. in 5% CO2. The day before treatment, 50,000 HEK 293 cells were seeded into each well in 96-well plates. The peptides were added at concentrations ranging from 0 to 64 ? mol L^−1 and 48 h after exposure, cell viability was measured by means of MTS (dimethylthiazol-carboxymethoxyphenyl-sulfophenyl-tetrazolium) assay. Experiments were performed in triplicate for each condition.

[2] = Mouse body weight / toxicity in the skin infection model; assay type: in vivo, mice; details: for mouse body weight: peptides used at 64 mol L^−1 (so in the source), compared to untreated mice
Experimental: FIGS. 8A-8D. In vivo activity of Pol-CP—NH2 and its analogs. FIG. 8A. Schematic of the experimental design. Briefly, the back of mice was shaved and an abrasion was generated to damage the stratum corneum and the upper layer of the epidermis. Subsequently, an aliquot of 50 μL containing 5×10^7 CFU of P. aeruginosa in PBS was inoculated over each defined area. One day after the infection, peptides (4 μmol L^−1) were administered to the infected area. Animals were euthanized and the area of scarified skin was excised two and four days post-infection (FIG. 8B) homogenized using a bead beater for 20 minutes (25 Hz), and serially diluted for CFU quantification (****p<0.0001). FIG. 8C. Mouse body weight measurements throughout the experiment normalized by the body weight of non-infected mice. […] FIG. 8D. Longer experiment (four days) using a higher concentration (64 μmol L^−1) of peptides Pol-CP—NH2 and [Lys]'-Pol-CP—NH2 (****p<0.0001).
Scarification Skin Infection Mouse Model. P. aeruginosa strain PA14 was grown to an optical density at 600 nm (OD600) of 1 in tryptic soy broth (TSB) medium. Subsequently cells were washed twice with sterile PBS (pH 7.4, 13,000 rpm for 1 minute), and resuspended to a final concentration of 5×10^7 CFU/50 ? L. To generate skin infection, female CD-1 mice (6 weeks old) were anesthetized with isoflurane and had their backs shaved. A superficial linear skin abrasion was made with a needle in order to damage the stratum corneum and upper-layer of the epidermis. Five minutes after wounding, an aliquot of 50 ? L containing 5×10^7 CFU of bacteria in PBS was inoculated over each defined area containing the scratch with a pipette tip. One day after the infection, peptides were administered to the infected area. Animals were euthanized and the area of scarified skin was excised two and four days post-infection, homogenized using a bead beater for 20 minutes (25 Hz), and serially diluted for CFU quantification. Two independent experiments were performed with 4 mice per group in each condition. Statistical significance was assessed using a one-way ANOVA.

human red blood cells = test: Hemolytic activity assay; assay type: cell-based; details: for HC50: concentration needed for 50% hemolysis, human RBC in PBS, room temperature, 1 h, 0.1-100 μmol L^−1; for hemolytic activity: range of concentrations evaluated 0-100 μmol L^−1
Experimental: FIGS. 6A-6B. Hemolysis and resistance to protease-mediated degradation of engineered peptides. FIG. 6A. Schematic of experimental design and hemolytic assay results of Pol-CP—NH2 and derivatives, where hemolytic activity was evaluated by incubating the peptides (0.1-100 μmol L^−1) with human red blood cells in PBS at room temperature for 1 h. Experiments were performed in triplicate, (*p<0.05). FIG. 6B. Resistance to degradation of Pol-CP—NH2 and analogs exposed to fetal bovine serum (FBS) proteases for 6 h. Experiments were done in triplicate.
Hemolytic Activity Assays. Human erythrocytes were collected and washed three times by centrifugation at 300×g with PBS (pH 7.4). After the last centrifugation, the cells were resuspended in PBS pH 7.4. Aliquots at a concentration of 0.1 to 100 ? mol L^−1 of the peptides were added to the 96-well microplate, where in each well containing 50 ? L of a suspension of erythrocytes to 0.4% in a phosphate saline buffer (10 mmol L^−1 Na2HPO4, 1.8 mmol L^−1 […], pH 7.4, 137 mmol L^−1 NaCl and 2.7 mmol L^−1KCl). After that, the samples were incubated at room temperature for 1 h. Hemolysis was determined by reading absorbance at 405 nm of each well in a bed of plates. 1% SDS in PBS solution was used as positive control (Shalel S. et al., J. Colloid Interface Sci. 252, 66-76 (2002); Love L. J. Cell. Comp. Physiol. 36, 133-148 (1950)) and as negative control was used PBS only. MHC was defined as the maximal non-hemolytic concentration.

Substance: H-ILGTILGLLKSL-NH2 [WT, ILGTILGLLKSL-NH2, reference compound]
- toxicity at 64 μmol L^−1 [1]: toxic
- Cytotoxicity [1]: 32.0 µmol/L
- Cytotoxicity ([1]; listed as wild-type peptide): 32 µmol/L
- mouse body weight [2]: did not change significantly
- HC50 (human red blood cells): 50.0 µmol/L
- hemolytic activity (human red blood cells): hemolytic

Substance: H-ILGTILKLLKSL-NH2 [Peptide 16, ILGTILKLLKSL-NH2]
- toxicity at 64 μmol L^−1 [1]: toxic
- Cytotoxicity [1]: 16.0 µmol/L
- Cytotoxicity ([1]; listed as [Lys]^7-Pol-CP—NH2): 16 µmol/L
- cytotoxic concentration relative to MIC against P. aeruginosa ([1]; HEK293 cytotoxicity vs MIC): two- to four-fold higher
- mouse body weight [2]: did not change significantly
- toxicity to mice ([2]; single dose): non-toxic
- HC50 (human red blood cells): 12.5 µmol/L
- hemolytic activity (concentration at which hemolytic) (human red blood cells; human red blood cells, range evaluated 0-100 μmol L^−1): 12.5 µmol/L
- hemolytic activity (human red blood cells): hemolytic
